Measurements as given in patent publication US20230057133A1, “COMPOUND FOR THE TREATMENT AND PREVENTION OF CENTRAL NERVOUS SYSTEM DISORDERS” (ABAXYS THERAPEUTICS, priority 2019, published 2023).

Experiments:
Format in all cases: in vivo, zebrafish
zebra fish larvae [1] = assay: Model of epileptic activity: pentetrazole-induced locomotor activity of zebra fish larvae
Description: (§1) Compound was tested in zebrafish paradigms reaction to environmental stimuli, epileptic activity and dopaminergic hyperactivity. Zebrafish used in present studies were raised in regular conditions of housing in tanks of appropriate size and circadian rhythm (12:12 photoperiod, light/darkness). The aqueous medium used for the maintenance and experimental conditions was Instant Ocean®. The water maintained between at 27° C. or 29° C., pH between 7.2-7.5 and a conductivity value between 480-520 μS. Zebrafish embryos were placed in sterile petri dishes before being transferred to plates after the hatching.
(§2) For experimental studies, larvae of up to 5 dpf were placed in flat bottom 96-well plates. At the treatment time, the medium was replaced by 150 μL fresh medium. Pentetrazole (PTZ) and/or Cmpd1 (treatment), or vehicle (control) were added (up to 210-240 μL) to the wells followed by video recording.
(§3) Locomotion of larvae was recorded using Noldus daniovisio system equipped with infrared light detection. Ethovision XT15 software controlled the temperature of plate (28° C.) and chamber light conditions. The experimental recording was done with a cycle of light period (20 min) followed by dark period (45 min). After recording data were analysed using Ethovision XT15 software package. The distance moved by larvae was calculated for each period of 2 min recording (FIGS. 1 to 6 and 10) or as accumulated value of distance at 2 min (initiation), at 4 min at 10 min and at 20 min (switch to darkness) or at 60 min (end of recording) (FIGS. 7 and 8).
(§4) All compounds were dissolved in medium or medium containing DMSO at indicated concentrations.

zebra fish larvae [2] = assay: Model of hyperdopaminergic activity: apomorphine-induced locomotor activity of zebra fish larvae
Description: as §1, §2, §3, §4
The same methods as disclosed in Example 1 ware carried out for Example 2, except that the pentetrazole was replaced by apomorphine (APO).

zebra fish larvae [3] = assay: Locomotion of zebra fish larvae treated with compound alone, light period followed by dark period; settings: Cmpd1 100 μM alone versus vehicle; FIGS. 5 and 10
Description: as §1, §2
as §3, with “Ethovision XT15 software controlled the temperature of plate (28° C.) and chamber light conditions. The experimental recording was done with a cycle of light period (20 min) followed by dark period (45 min).” left out, “8). […]” for “8).”

`CCOC(=O)C1CCN(C(=O)[C@H](C)N(c2ccc(C)cc2)S(C)(=O)=O)CC1` [Cmpd1, ethyl 1-(N-(methylsulfonyl)-N-(p-tolyl)alanyl)piperidine-4-carboxylate] was tested, and the “locomotion level compared with vehicle treated zebra fishes” value (zebra fish larvae [1]; Cmpd1 100 μM, FIG. 2 open circles and FIG. 7) was “stabilizes locomotion to levels close to normal locomotion”, the “locomotor activity induced by pentetrazole alone (distance moved)” value (zebra fish larvae [1]; co-treatment Cmpd1 100 μM + pentetrazole 10 mM, FIG. 2 and FIG. 7) was “decrease of the locomotor activity” and the “conclusion of the epileptic activity model” value (zebra fish larvae [1]; pentetrazole model, Cmpd1 100 μM) was “anti-epileptic activity”. For the same compound, the “locomotion level compared with vehicle treated zebra fish” value (zebra fish larvae [2]; FIG. 5 and FIGS. 9 and 10) was “stabilizes locomotion to levels close to normal locomotion”, the “conclusion of the hyperdopaminergic activity model” value (zebra fish larvae [2]; apomorphine model) was “stabilizer of the hyperdopaminergic activity” and the “locomotor activity induced by apomorphine alone (distance moved)” value (zebra fish larvae [2]; co-treatment Cmpd1 100 μM + apomorphine 55 μM, FIG. 9) was “decrease of the locomotor activity”. The “locomotor activity induced by apomorphine alone (distance moved)” value (zebra fish larvae [2]; co-treatment Cmpd1 100 μM + apomorphine 75 μM, FIG. 4) was “decrease of the locomotor activity”, the “apomorphine-induced locomotion activity, time course” value (zebra fish larvae [2]; first period of the assay, up to ~20 min, FIG. 9) was “reduces apomorphine-induced locomotion activity strongly” and the “locomotion activity and peak due to change to dark condition” value (zebra fish larvae [3]) was “maintains a low level of locomotion activity suppressing also the peak due to change to dark condition”.

`CN1CCc2cccc3c2[C@H]1Cc1ccc(O)c(O)c1-3` [apomorphine, reference compound] was tested, and the “locomotor activity (distance moved) versus vehicle” value (zebra fish larvae [2]; apomorphine alone, 75 μM (FIG. 3) or 55 μM (FIG. 8), light conditions) was “clear increase of locomotor activity in light conditions”.

`C1CCc2nnnn2CC1` [pentetrazole, reference compound] was tested, and the “locomotor activity (distance moved) versus vehicle” value (zebra fish larvae [1]; pentetrazole 10 mM alone, larvae up to 5 dpf, light 20 min then dark 45 min, FIGS. 1, 2, 6) was “clear increase of locomotor activity in both light and dark conditions”.
